From patent US12559464B2, “Quinazolinone dione compounds and uses thereof” (Edgewise Therapeutics, Inc., priority 2023, dated 2026)

Columns and labels:
[1] = test system: myosin ATPase, Porcine Atria myofibrils; test: Myofibril ATPase assay, porcine atria myofibrils; type: biochemical; details: concentration required to reduce myosin ATP-ase activity by 25%; Porcine Atria Prep pCa 25 GEOM_MEAN
[2] = test system: myosin ATPase, Rabbit Psoas myofibrils; test: Myofibril ATPase assay, rabbit psoas (skeletal) myofibrils; type: biochemical; details: concentration required to reduce myosin ATP-ase activity by 25%; Rabbit Psoas Prep pCa 25 GEOM_MEAN
[3] = molecular target: T1, myosin ATPase, Porcine Ventricle myofibrils (Sus scrofa, UniProt P79293); test: Myofibril ATPase assay, porcine ventricle myofibrils; type: biochemical, porcine (Yucatan minipigs); details: concentration required to reduce myosin ATP-ase activity by 25%; Porcine Ventricle Prep pCa 25 GEOM_MEAN
T1 construct: Myofibrils from porcine cardiac muscle was isolated from the left ventricle of Yucatan minipigs; tissue Exemplar Genetics; host or cells: left ventricle of Yucatan minipigs, myofibrils
T1 sequence (P79293 whole entry): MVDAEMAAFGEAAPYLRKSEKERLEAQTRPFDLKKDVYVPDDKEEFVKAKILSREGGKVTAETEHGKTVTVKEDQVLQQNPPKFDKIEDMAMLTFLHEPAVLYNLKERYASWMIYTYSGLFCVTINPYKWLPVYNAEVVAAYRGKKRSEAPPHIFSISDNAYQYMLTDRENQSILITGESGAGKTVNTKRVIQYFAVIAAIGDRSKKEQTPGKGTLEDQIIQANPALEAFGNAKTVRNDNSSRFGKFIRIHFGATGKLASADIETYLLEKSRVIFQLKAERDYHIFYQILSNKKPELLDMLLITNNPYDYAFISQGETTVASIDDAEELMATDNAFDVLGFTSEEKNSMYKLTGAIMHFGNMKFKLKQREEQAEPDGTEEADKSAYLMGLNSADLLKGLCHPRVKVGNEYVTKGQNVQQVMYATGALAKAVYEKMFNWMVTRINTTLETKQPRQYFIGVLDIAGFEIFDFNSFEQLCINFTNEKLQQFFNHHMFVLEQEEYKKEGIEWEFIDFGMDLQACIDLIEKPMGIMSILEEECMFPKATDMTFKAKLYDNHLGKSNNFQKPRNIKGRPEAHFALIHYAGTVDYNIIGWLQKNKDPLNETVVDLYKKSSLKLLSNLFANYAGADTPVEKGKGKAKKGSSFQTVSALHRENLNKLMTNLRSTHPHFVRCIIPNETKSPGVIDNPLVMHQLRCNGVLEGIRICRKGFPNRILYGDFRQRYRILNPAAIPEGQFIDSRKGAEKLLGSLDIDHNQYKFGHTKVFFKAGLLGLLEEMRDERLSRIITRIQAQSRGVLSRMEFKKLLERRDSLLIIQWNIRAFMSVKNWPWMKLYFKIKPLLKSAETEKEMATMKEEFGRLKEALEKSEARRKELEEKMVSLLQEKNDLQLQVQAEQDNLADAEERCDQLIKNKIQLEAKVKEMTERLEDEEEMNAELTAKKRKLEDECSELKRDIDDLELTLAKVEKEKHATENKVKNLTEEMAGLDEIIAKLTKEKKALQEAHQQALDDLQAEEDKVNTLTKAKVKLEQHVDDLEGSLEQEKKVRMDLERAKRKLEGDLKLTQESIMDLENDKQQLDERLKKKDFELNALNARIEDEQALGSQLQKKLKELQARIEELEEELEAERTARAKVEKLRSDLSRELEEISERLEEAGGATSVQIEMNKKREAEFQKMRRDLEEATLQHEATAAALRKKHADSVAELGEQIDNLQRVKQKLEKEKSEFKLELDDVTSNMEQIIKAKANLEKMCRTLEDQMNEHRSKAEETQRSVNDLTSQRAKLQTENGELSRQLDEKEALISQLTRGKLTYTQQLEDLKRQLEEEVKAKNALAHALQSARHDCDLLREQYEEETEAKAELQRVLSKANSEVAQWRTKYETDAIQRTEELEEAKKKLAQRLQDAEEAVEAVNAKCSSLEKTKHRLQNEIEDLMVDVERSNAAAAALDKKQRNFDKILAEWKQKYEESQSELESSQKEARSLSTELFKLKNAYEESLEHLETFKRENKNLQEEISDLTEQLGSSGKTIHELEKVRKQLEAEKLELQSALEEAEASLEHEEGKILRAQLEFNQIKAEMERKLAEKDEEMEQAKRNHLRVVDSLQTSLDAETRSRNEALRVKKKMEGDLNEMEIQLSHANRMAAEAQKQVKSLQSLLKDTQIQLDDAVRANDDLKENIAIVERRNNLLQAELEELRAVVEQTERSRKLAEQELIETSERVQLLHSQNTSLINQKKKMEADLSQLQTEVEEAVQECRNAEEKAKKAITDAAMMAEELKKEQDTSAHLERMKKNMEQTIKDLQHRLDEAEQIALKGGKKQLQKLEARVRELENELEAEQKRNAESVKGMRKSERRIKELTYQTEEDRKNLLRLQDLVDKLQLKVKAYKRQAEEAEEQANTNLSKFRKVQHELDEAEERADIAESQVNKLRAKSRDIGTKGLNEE
Outline: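 Myofibrils from Yucatan minipig left ventricle; ADP production coupled via PK-LDH to NADH loss, read kinetically at 340 nm every 1.5–2 min for 75 min in PIPES/MgCl2 pH 7.0 buffer. Slopes normalized to vehicle and fit to 4-parameter logistic; values are concentrations giving 75% (inhibition) or 125% (activation) of vehicle activity.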

| Structure (SMILES) | Porcine Atria EC25 (Y75 value) [1] | Rabbit Psoas EC25 (Y75 value) [2] | Porcine Ventricle EC25 (Y75 value) [3] |
| --- | --- | --- | --- |
| CC(NC(=O)Cn1c(=O)[nH]c2ccccc2c1=O)c1nccs1 (stereo not drawn) [Compound 601, 2-(2,4-dioxo-1,4-dihydroquinazolin-3(2H)-yl)-N-(1-(thiazol-2-yl)ethyl)acetamide] | 100 µM | 100 µM | 100 µM |
| C[C@H](NC(=O)Cn1c(=O)[nH]c2ccc(F)c(F)c2c1=O)c1ccc(C#N)cn1 (single isomer, unassigned) [Compound 18] | 0.378 µM | 0.512 µM | 5.522 µM |
| O=C(Cn1c(=O)[nH]c2ccncc2c1=O)N[C@H]1CCc2cc(F)cc(F)c21 (single isomer, unassigned) [Compound 44] | 36.5 µM | 1.145 µM | 100 µM |
| C[C@H](NC(=O)Cn1c(=O)[nH]c2ccc(F)cc2c1=O)c1cnc(C#N)nc1 (single isomer, unassigned) [Compound 210] | 0.118 µM | 0.174 µM | 0.559 µM |
| C[C@H](NC(=O)Cn1c(=O)[nH]c2ccc(C#N)cc2c1=O)c1ncc(C#N)cc1F (single isomer, unassigned) [Compound 16] | 0.57 µM | 5.743 µM | 14.04 µM |
| Cc1nn(C)cc1C(C)NC(=O)Cn1c(=O)[nH]c2ccccc2c1=O (stereo not drawn) [Compound 602, N-(1-(1,3-dimethyl-1H-pyrazol-4-yl)ethyl)-2-(2,4-dioxo-1,4-dihydroquinazolin-3(2H)-yl)acetamide] | 100 µM | 100 µM | 100 µM |
| Cc1c(F)ccc2[nH]c(=O)n(CC(=O)N[C@H](C)c3ccc(C#N)cn3)c(=O)c12 (single isomer, unassigned) [Compound 3009] | 0.10 µM | 0.06 µM | 0.25 µM |
| C[C@@H](NC(=O)Cn1c(=O)[nH]c2ccc(F)c(F)c2c1=O)c1ccc(C#N)nn1 (single isomer, unassigned) [Compound 3] | 1.074 µM | 2.538 µM | 100 µM |
| O=C(Cn1c(=O)[nH]c2ccccc2c1=O)NC1CNC(=O)c2cc(F)cc(F)c21 (stereo not drawn) [Compound 46, N-(5,7-difluoro-1-oxo-1,2,3,4-tetrahydroisoquinolin-4-yl)-2-(2,4-dioxo-1,4-dihydroquinazolin-3(2H)-yl)acetamide] | 100 µM | 100 µM | 100 µM |
| Cc1c(F)ccc2[nH]c(=O)n(CC(=O)N[C@@H](C)c3ccc(C#N)cn3)c(=O)c12 (single isomer, unassigned) [Compound 3010] | 1.97 µM | 1.59 µM | 1.90 µM |
| CN1CC(NC(=O)Cn2c(=O)[nH]c3ccccc3c2=O)c2c(F)cc(F)cc2C1=O (stereo not drawn) [Compound 43, N-(5,7-difluoro-2-methyl-1-oxo-1,2,3,4-tetrahydroisoquinolin-4-yl)-2-(2,4-dioxo-1,4-dihydroquinazolin-3(2H)-yl)acetamide] | 100 µM | 58.79 µM | 100 µM |
| C[C@H](NC(=O)Cn1c(=O)[nH]c2ccc(F)c(F)c2c1=O)c1ncc(C#N)cc1F (single isomer, unassigned) [Compound 22] | 0.083 µM | 0.036 µM | 0.205 µM |
| Cc1cc(C#N)cnc1[C@H](C)NC(=O)Cn1c(=O)[nH]c2ccc(F)c(F)c2c1=O (single isomer, unassigned) [Compound 14] | 5.931 µM | 21.27 µM | 23.76 µM |

Now from value to compound:

| Porcine Atria EC25 (Y75 value) [1] | Rabbit Psoas EC25 (Y75 value) [2] | Porcine Ventricle EC25 (Y75 value) [3] | Structure (SMILES) |
| --- | --- | --- | --- |
| 23.51 µM | 5.727 µM | 100 µM | CC(NC(=O)Cn1c(=O)[nH]c2ccccc2c1=O)c1cc(F)ccc1F (stereo not drawn) [Compound 525, N-(1-(2,5-difluorophenyl)ethyl)-2-(2,4-dioxo-1,4-dihydroquinazolin-3(2H)-yl)acetamide] |
| 0.0623 µM | 0.073 µM | 0.1805 µM | C[C@H](NC(=O)Cn1c(=O)[nH]c2ccc(F)cc2c1=O)c1ccc(F)cc1F [Compound 155, (S)-N-(1-(2,4-difluorophenyl)ethyl)-2-(6-fluoro-2,4-dioxo-1,4-dihydroquinazolin-3(2H)-yl)acetamide] |
| 2.118 µM | 35.849 µM | 100 µM | C[C@H](NC(=O)C(CO)n1c(=O)[nH]c2ccccc2c1=O)c1ccc(F)cc1F (single isomer, unassigned) [Compound 511] |
| 100 µM | 100 µM | 100 µM | C[C@H](NC(=O)Cn1c(=O)[nH]c2ccccc2c1=O)c1ccccc1 (single isomer, unassigned) [Compound 534] |
| 0.0536 µM | 0.055 µM | 0.3333 µM | C[C@H](NC(=O)Cn1c(=O)[nH]c2ccc(F)c(F)c2c1=O)c1ccc(F)cc1F [Compound 39, (S)-2-(5,6-difluoro-2,4-dioxo-1,4-dihydroquinazolin-3(2H)-yl)-N-(1-(2,4-difluorophenyl)ethyl)acetamide] |
| 100 µM | 100 µM | 100 µM | O=C(Cn1c(=O)[nH]c2ccccc2c1=O)NCc1ccc(F)cc1F [Compound 5009, N-(2,4-difluorobenzyl)-2-(2,4-dioxo-1,4-dihydroquinazolin-3(2H)-yl)acetamide] |
| 7.86 µM | 16.05 µM | 100 µM | CC(NC(=O)Cn1c(=O)[nH]c2ccccc2c1=O)c1ccccc1Cl (stereo not drawn) [Compound 523, N-(1-(2-chlorophenyl)ethyl)-2-(2,4-dioxo-1,4-dihydroquinazolin-3(2H)-yl)acetamide] |
| 21.1 µM | 1.147 µM | 100 µM | COc1cccc2[nH]c(=O)n(CC(=O)N[C@@H](C)c3ccc(F)cc3F)c(=O)c12 [Compound 69, (S)-N-(1-(2,4-difluorophenyl)ethyl)-2-(5-methoxy-2,4-dioxo-1,4-dihydroquinazolin-3(2H)-yl)acetamide] |
| 100 µM | 100 µM | 100 µM | C[C@@H](NC(=O)Cn1c(=O)[nH]c2ccccc2c1=O)c1ccccc1 (single isomer, unassigned) [Compound 533] |
| 1.442 µM | 1.97 µM | 100 µM | CC(NC(=O)Cn1c(=O)[nH]c2ccccc2c1=O)c1ncc(F)cc1F (stereo not drawn) [Compound 47, N-(1-(3,5-difluoropyridin-2-yl)ethyl)-2-(2,4-dioxo-1,4-dihydroquinazolin-3(2H)-yl)acetamide] |
| 63.31 µM | 12.297 µM | 100 µM | C[C@H](NC(=O)Cn1c(=O)[nH]c2c(F)cccc2c1=O)c1ccc(F)cc1F [Compound 406, (S)-N-(1-(2,4-difluorophenyl)ethyl)-2-(8-fluoro-2,4-dioxo-1,4-dihydroquinazolin-3(2H)-yl)acetamide] |
| 100 µM | 100 µM | 100 µM | CC(NC(=O)Cn1c(=O)[nH]c2ccccc2c1=O)c1cccs1 (stereo not drawn) [Compound 606, 2-(2,4-dioxo-1,4-dihydroquinazolin-3(2H)-yl)-N-(1-(thiophen-2-yl)ethyl)acetamide] |
| 100 µM | 100 µM | 100 µM | C[C@H](NC(=O)Cn1c(=O)[nH]c2cc(C(F)(F)F)ccc2c1=O)c1ccc(F)cc1F [Compound 405, (S)-N-(1-(2,4-difluorophenyl)ethyl)-2-(2,4-dioxo-7-(trifluoromethyl)-1,4-dihydroquinazolin-3(2H)-yl)acetamide] |
| 1.175 µM | 0.761 µM | 99.13 µM | C[C@H](NC(=O)[C@H](C)n1c(=O)[nH]c2ccccc2c1=O)c1ccc(F)cc1F (single isomer, unassigned) [Compound 102] |
| 1.036 µM | 1.521 µM | 87.37 µM | C[C@H](NC(=O)[C@@H](C)n1c(=O)[nH]c2ccccc2c1=O)c1ccc(F)cc1F (single isomer, unassigned) [Compound 101] |
| 100 µM | 100 µM | 100 µM | C[C@H](NC(=O)C(C)(C)n1c(=O)[nH]c2ccccc2c1=O)c1ccc(F)cc1F [Compound 42, (S)-N-(1-(2,4-difluorophenyl)ethyl)-2-(2,4-dioxo-1,4-dihydroquinazolin-3(2H)-yl)-2-methylpropanamide] |
